Test results: ChEMBL document CHEMBL3046523, “Protection of protein carbonyl formation by quercetin in erythrocytes subjected to oxidative stress” (Med Chem Res, 2010)

Legend:
[1] = Antioxidant activity in plasma assessed as ABTS radical scavenging activity relative to trolox; format: functional, cell-free
[2] = tested on: Erythrocyte; test: Antioxidant activity in Homo sapiens (human) erythrocytes assessed as protection against t-BHP-induced oxidative stress at 0.1 to 100 uM; format: functional, cell-based; conditions: TDE = time-dependent effect
[3] = tested on: Erythrocyte; test: Antioxidant activity in Homo sapiens (human) erythrocytes assessed as protection against t-BHP-induced oxidative stress measured up to 180 min; format: functional, cell-based

With `O=c1c(O)c(-c2ccc(O)c(O)c2)oc2cc(O)cc(O)c12` the fold change (FC) [1] was 6, the Activity [2] was “tde” and the Activity [3] was “Dose-dependent effect”.
